Source: patent publication US10077277B2, “Bicyclic heteroarylaminoalkyl phenyl derivatives as PI3K inhibitors” (Incyte Corporation, priority 2014, dated 2018)

Assays:
[1] = molecular target: human JAK2 (Homo sapiens (Human), UniProt O60674); experiment: In vitro JAK kinase assay (Example J), JAK2; format: biochemical; settings: ratio of IC50s, Assay J at 1 mM ATP
[2] = molecular target: human JAK1 (Homo sapiens, UniProt P23458); experiment: In vitro JAK kinase assay (Example J), JAK1; format: biochemical; settings: Assay J at 1 mM ATP

Chain of human JAK2 (O60674 828-1132): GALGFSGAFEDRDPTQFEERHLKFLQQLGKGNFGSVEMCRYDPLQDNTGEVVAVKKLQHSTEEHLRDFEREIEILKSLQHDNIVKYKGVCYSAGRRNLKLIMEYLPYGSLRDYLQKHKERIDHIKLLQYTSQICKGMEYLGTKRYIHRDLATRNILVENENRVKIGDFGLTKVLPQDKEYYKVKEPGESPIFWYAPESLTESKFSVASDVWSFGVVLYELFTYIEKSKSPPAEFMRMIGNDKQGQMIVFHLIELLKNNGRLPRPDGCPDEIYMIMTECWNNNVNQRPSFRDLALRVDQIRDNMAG

| JAK2/JAK1 [1] | IC50 [2] | SMILES |
| --- | --- | --- |
| >10 | < 10 nM | N#CCC1(n2cc(-c3ncnc4[nH]ccc34)cn2)CN(C2CCN(C(=O)c3ccnc(C(F)(F)F)n3)CC2)C1 [Example 9, [3-[4-(7H-pyrrolo[2,3-d]pyrimidin-4-yl)-1H-pyrazol-1-yl]-1-(1-{[2-(trifluoromethyl)pyrimidin-4-yl]carbonyl}piperidin-4-yl)azetidin-3-yl]acetonitrile] |
| >10 | < 10 nM | N#CC[C@]1(n2cc(-c3ncnc4[nH]ccc34)cn2)C[C@H](N2CCN(C(=O)c3ccnc(C(F)(F)F)n3)CC2)C1 [Example 10] |
| >10 | < 10 nM | C[C@H](NC(=O)c1cc(F)c(N2CC(CC#N)(n3cc(-c4ncnc5[nH]ccc45)cn3)C2)cc1F)C(F)(F)F [Example 16] |
| >10 | < 10 nM | CC(C)(O)c1cc(O[C@H]2CC[C@@H](N3CC(CC#N)(n4cc(-c5ncnc6[nH]ccc56)cn4)C3)CC2)nc(C(F)(F)F)c1 [Example 20, {1-(cis-4-{[4-(1-hydroxy-1-methylethyl)-6-(trifluoromethyl)pyridin-2-yl]oxy}cyclohexyl)-3-[4-(7H-pyrrolo[2,3-d]pyrimidin-4-yl)-1H-pyrazol-1-yl]azetidin-3-yl}acetonitrile] |
| >10 | < 10 nM | N#CC[C@]1(n2cc(-c3ncnc4[nH]ccc34)cn2)C[C@H](N2CCC(Oc3cc(CN4CC(O)C4)cc(C(F)(F)F)n3)CC2)C1 [Example 11] |
| >10 | < 10 nM | N#CC[C@]1(n2cc(-c3ncnc4[nH]ccc34)cn2)C[C@H](N2CCC(Oc3cc(CN4CCC[C@H]4CO)cc(C(F)(F)F)n3)CC2)C1 [Example 12] |
| >10 | < 10 nM | N#CC[C@]1(n2cc(-c3ncnc4[nH]ccc34)cn2)C[C@H](N2CCC(Oc3cc(CN4CCC[C@@H]4CO)cc(C(F)(F)F)n3)CC2)C1 [Example 13] |
| >10 | < 10 nM | N#CCC1(n2cc(-c3ncnc4[nH]ccc34)cn2)CN([C@H]2CC[C@@H](Oc3cc(CN4CC[C@H](O)C4)cc(C(F)(F)F)n3)CC2)C1 [Example 22, {1-(cis-4-{[4-{[(3S)-3-hydroxypyrrolidin-1-yl]methyl}-6-(trifluoromethyl)pyridin-2-yl]oxy}cyclohexyl)-3-[4-(7H-pyrrolo[2,3-d]pyrimidin-4-yl)-1H-pyrazol-1-yl]azetidin-3-yl}acetonitrile] |
| >10 | < 10 nM | C[C@@H](CO)NCc1cc(OC2CCN([C@H]3C[C@](CC#N)(n4cc(-c5ncnc6[nH]ccc56)cn4)C3)CC2)nc(C(F)(F)F)c1 [Example 23] |
| >10 | < 10 nM | N#CCC1(n2cc(-c3ncnc4[nH]ccc34)cn2)CN(C2CCN(C(=O)c3ccnc(C(F)(F)F)c3F)CC2)C1 [Example 7, {1-{1-[3-Fluoro-2-(trifluoromethyl)isonicotinoyl]piperidin-4-yl}-3-[4-(7H-pyrrolo[2,3-d]pyrimidin-4-yl)-1H-pyrazol-1-yl]azetidin-3-yl}acetonitrile] |
| >10 | < 10 nM | N#CC[C@]1(n2cc(-c3ncnc4[nH]ccc34)cn2)C[C@H](N2CCC(Oc3cc(CCO)cc(C(F)(F)F)n3)CC2)C1 [Example 26] |
| >10 | < 10 nM | N#CCC(C1CCN(c2cccc(Cl)n2)C1)n1cc(-c2ncnc3[nH]ccc23)cn1 (centres unmarked) [bis(trifluoroacetate)] |
| >10 | < 10 nM | N#CCC1(n2cc(-c3ncnc4[nH]ccc34)cn2)CN([C@H]2CC[C@@H](Oc3cc(CN4CC[C@@H](O)C4)cc(C(F)(F)F)n3)CC2)C1 [Example 21] |

| SMILES | JAK2/JAK1 [1] | IC50 [2] |
| --- | --- | --- |
| N#CCC(CN1CCN(C(=O)c2ccc(C#N)cc2F)CC1)n1cc(-c2ncnc3[nH]ccc23)cn1 (centres unmarked) [Example 6] | >10 | – |
| N#CCC(CN1CCN(C(=O)c2ccc(C#N)cc2F)CC1)n1cc(-c2ncnc3[nH]ccc23)cn1 (centres unmarked) [Example 5] | >10 | < 10 nM |
